Test results taken from patent US20220265597A1, “ANTIVIRAL EFFECTS OF NARASIN IN SWINE FEED” (Elanco US Inc., priority 2014, published 2022).
Marks after values point to notes of the source that are not given here.

Experiments:
[1] = tested on: PEDV; test: Growth performance of nursery pigs challenged with PEDV, narasin in feed; type: in vivo, pig; conditions: for numerical increase of overall ADG compared to the control / numerical increase of overall G:F compared to the control: overall (Day 0 to 14)
Text: Eighty-one weaning stage (21.8+/−0.6 days) commercial crossbred piglets (Wilson's Prairie View Farms, Burlington, Wis.) free of PEDV infection arrived at the site and six were used as potential replacement animals during the pre-challenge period (Day −7 to Day 0). Six piglets were removed at Day 0 immediately prior to PEDV challenge, resulting in fifteen pens containing five piglets/pen (n=75) animals. There were five pens per treatment. For balance of sentinel piglets within a block, a total of thirty-nine piglets of one gender and thirty-six of the other gender were used. The use of five pens (twenty-five piglets) per treatment group was estimated to detect significant differences (P<0.10) between treatment groups in growth performance and incidence of viral shedding.
(§1) The seventy-five piglets were randomly assigned to one of three treatment groups: control (no ionophore), narasin (30 mg/kg) and narasin (60 mg/kg). They acclimatized to their environment and were fed daily for seven days prior to exposure with PEDV on Day 0. Treatment continued for 14 days following challenge. Pigs from the three treatment groups were administered orally with 4×10^4 TCID50/mL of the PEDV isolate PEDV/USA/NC/2013/49469 (College of Veterinary Medicine, Iowa State University). The piglets were monitored daily for changes in clinical parameters, clinical score for diarrhea, depression and gauntness, rate of food consumption, and rate of body weight change and viral swabs were taken daily to determine viral shedding.
(§2) Viral shedding values was evaluated by RMANOVA and the PROC MIXED procedure of SAS (SAS, Cary, N.C.). Other variables for analysis included growth performance data (average daily gain, or ADG; average daily feed intake, or ADFI; and feed efficiency (unit of weight gain per unit of feed consumed), or G:F), incidence and severity of diarrhea, depression, and gauntness scores, and intestinal histology score and immunohistochemistry. The analysis of the growth performance outcomes were conducted using a generalized linear mixed model and the PROC MIXED procedure of SAS.
Diet formulations were manufactured at Provimi (Lewisburg, Ohio) and fed in meal form.
The effects of narasin inclusion level on mean body weights (BW), average daily weight gain (ADG), average daily feed intake (ADFI), feed efficiency (G:F), and feed conversion ratio (F:G) are shown in Table 1.

[2] = tested on: PEDV; test: Enteric clinical observation scoring (diarrhea, depression, gauntness) of nursery pigs challenged with PEDV; type: in vivo, pig; design: Depression score, Severity: scale not given here; conditions: for Depression score, Severity / Diarrhea score, Severity / Gauntness score, Severity: average of worst score of each pig over 14-d period; for Depression score, Incidence / Diarrhea score, Incidence / Gauntness score, Incidence: pigs affected/pigs; for Gauntness score, Mean of Day 0 to 14: score 0-2; for Depression score, Mean of Day 0 to 14: score 0-3; for Diarrhea score, Mean of Day 0 to 14: score 1-4
Description: as §1
Incidence and severity of the score data (diarrhea, depression, and gauntness) were summarized by frequencies and mean scores on a daily basis.
Table 2 indicates the scoring system used to measure diarrhea, depression, and gauntness. Table 3 compares the mean scores for diarrhea, depression and gauntness in nursery pigs whose diet included 0, 30 or 60 mg/kg narasin.

[3] = tested on: PEDV; test: Viral shedding of PEDV in fecal swabs by real-time RT-PCR; type: in vivo, pig; conditions: for Viral shedding: only pigs positive for shedding
Description: as §1, §2
The effects of narasin levels (0, 30, 60 mg/kg) on within-day viral shedding of nursery pigs (Table 4) and percentage of nursery pigs shedding PEDV (Table 5) are compared. Fecal swabs were collected from all pigs on test daily from Day 0 to 14 of study. Each sample was labeled with pig identification, pen number, and sample day. All samples were frozen at the time of collection and stored until required for analysis. Only fecal swab samples collected from days 0, 1, 2, 3, 4, 5, 6, 7, 8, 9, and 14 were sent for analysis. Fecal swab samples were sent to the Iowa State Veterinary Diagnostic Laboratory (ISVDL) and were analyzed using real-time RT-PCR to determine viral shedding of PEDV.

[4] = tested on: PEDV; test: Intestinal histology score and immunohistochemistry of PEDV-challenged nursery pigs; type: in vivo, pig; conditions: not significant (P>0.05)
Description: as §2
The effects of narasin inclusion level on the intestinal histology score and immunohistochemistry were analyzed. As narasin level increased from 0, 30, 60 mg/kg), histology scores decreased from 2 to 0 while the immunohistochemistry score decreased only at the 60 mg/kg level (from 3 to 2) although differences were not significant (P>0.05).

[5] = tested on: flavivirus responsible for dengue fever; conditions: added to cultured human cells infected with the virus (Low, et al. 2011); cited from earlier work
[6] = tested on: nursery pigs; conditions: about 83 mg/kg feed, at least in the presence of tiamulin; cited from earlier work
[7] = 60 mg/kg feed, Day 0 to 5, P<0.10
[8] = 0, 30, 60 mg/kg feed, 14-d period

CC[C@@H](C(=O)O)[C@@H]1O[C@@H]([C@@H](C)[C@H](O)[C@H](C)C(=O)[C@H](CC)[C@H]2O[C@]3(C=C[C@@H](O)[C@]4(CC[C@@](C)([C@H]5CC[C@](O)(CC)[C@H](C)O5)O4)O3)[C@H](C)C[C@@H]2C)[C@@H](C)C[C@@H]1C [narasin]
effect of narasin level on overall growth performance ([1]; 0, 30, 60 mg/kg feed, Day 0 to 14, P>0.10): no effect | differences for ADG, ADFI, G:F, or F:G ([1]; 0, 30, 60 mg/kg feed, Day 5 to 14): no statistical differences | BW ([1]; 30 mg/kg feed, Day 0 (PEDV challenge)): 16.9 lb | ADFI ([1]; 30 mg/kg feed, Day 0 to 5): 0.68 lb | ADG ([1]; 30 mg/kg feed, Day 0 to 5): 0.38* lb | F:G ([1]; 30 mg/kg feed, Day 0 to 5): 1.93 lb:lb | G:F ([1]; 30 mg/kg feed, Day 0 to 5): 0.551 lb:lb | increase of ADG compared to the control ([1]; 30 mg/kg feed, Day 0 to 5, P<0.10): 58.3% | ADFI ([1]; 30 mg/kg feed, Day 0 to 14): 1.00 lb | ADG ([1]; 30 mg/kg feed, Day 0 to 14): 0.70 lb | F:G ([1]; 30 mg/kg feed, Day 0 to 14): 1.48 lb:lb | G:F ([1]; 30 mg/kg feed, Day 0 to 14): 0.711 lb:lb | BW ([1]; 30 mg/kg feed, Day 5): 18.7 lb | ADFI ([1]; 30 mg/kg feed, Day 5 to 14): 1.23 lb | ADG ([1]; 30 mg/kg feed, Day 5 to 14): 0.92 lb | F:G ([1]; 30 mg/kg feed, Day 5 to 14): 1.38 lb:lb | G:F ([1]; 30 mg/kg feed, Day 5 to 14): 0.772 lb:lb | BW ([1]; 30 mg/kg feed, Day 14): 26.9 lb | BW ([1]; 30 mg/kg feed, Day −7 (arrival, allotment)): 14.9* lb | ADFI ([1]; 30 mg/kg feed, Day −7 to 0): 0.37 lb | ADG ([1]; 30 mg/kg feed, Day −7 to 0): 0.29 lb | F:G ([1]; 30 mg/kg feed, Day −7 to 0): 1.33 lb:lb | G:F ([1]; 30 mg/kg feed, Day −7 to 0): 0.802 lb:lb | numerical increase of overall ADG compared to the control ([1]; 30 mg/kg feed): 7.7% | numerical increase of overall G:F compared to the control ([1]; 30 mg/kg feed): 7.9% | BW ([1]; 60 mg/kg feed, Day 0 (PEDV challenge)): 16.7 lb | ADFI ([1]; 60 mg/kg feed, Day 0 to 5): 0.71 lb | ADG ([1]; 60 mg/kg feed, Day 0 to 5): 0.48* lb | F:G ([1]; 60 mg/kg feed, Day 0 to 5): 1.56 lb:lb | G:F ([1]; 60 mg/kg feed, Day 0 to 5): 0.670* lb:lb | increase of ADG compared to the control [1, 7]: 100% | increase of G:F compared to 0 mg/kg narasin [1, 7]: 78.7% | ADFI ([1]; 60 mg/kg feed, Day 0 to 14): 1.01 lb | ADG ([1]; 60 mg/kg feed, Day 0 to 14): 0.70 lb | F:G ([1]; 60 mg/kg feed, Day 0 to 14): 1.44 lb:lb | G:F ([1]; 60 mg/kg feed, Day 0 to 14): 0.698 lb:lb | BW ([1]; 60 mg/kg feed, Day 5): 19.2 lb | ADFI ([1]; 60 mg/kg feed, Day 5 to 14): 1.22 lb | ADG ([1]; 60 mg/kg feed, Day 5 to 14): 0.85 lb | F:G ([1]; 60 mg/kg feed, Day 5 to 14): 1.42 lb:lb | G:F ([1]; 60 mg/kg feed, Day 5 to 14): 0.708 lb:lb | BW ([1]; 60 mg/kg feed, Day 14): 26.9 lb | BW ([1]; 60 mg/kg feed, Day −7 (arrival, allotment)): 14.9* lb | ADFI ([1]; 60 mg/kg feed, Day −7 to 0): 0.36 lb | ADG ([1]; 60 mg/kg feed, Day −7 to 0): 0.26* lb | F:G ([1]; 60 mg/kg feed, Day −7 to 0): 1.38 lb:lb | G:F ([1]; 60 mg/kg feed, Day −7 to 0): 0.742 lb:lb | decrease of ADG compared to the control ([1]; 60 mg/kg feed, Day −7 to 0, P<0.10): 18.8% | numerical increase of overall ADG compared to the control ([1]; 60 mg/kg feed): 7.7% | numerical increase of overall G:F compared to the control ([1]; 60 mg/kg feed): 5.9% | effect of narasin level on mean of depression scores [2, 8]: not affected | effect of narasin level on mean or severity of gauntness scores [2, 8]: little effect | incidence of depression, animals ([2]; 30 mg/kg feed, 14-d period): 4 animals | Depression score, Severity ([2]; 30 mg/kg feed): 0.16 | Diarrhea score, Severity ([2]; 30 mg/kg feed): 2.72 | Gauntness score, Severity ([2]; 30 mg/kg feed): 0.68 | Depression score, Incidence ([2]; 30 mg/kg feed): 4/25 | Diarrhea score, Incidence ([2]; 30 mg/kg feed): 19/25 | Gauntness score, Incidence ([2]; 30 mg/kg feed): 14/25 | Gauntness score, Mean of Day 0 to 14 ([2]; 30 mg/kg feed): 0.14 | Depression score, Mean of Day 0 to 14 ([2]; 30 mg/kg feed): 0.03 | Diarrhea score, Mean of Day 0 to 14 ([2]; 30 mg/kg feed): 1.45 | incidence of depression, animals ([2]; 60 mg/kg feed, 14-d period): 3 animals | Depression score, Severity ([2]; 60 mg/kg feed): 0.12 | Diarrhea score, Severity ([2]; 60 mg/kg feed): 2.48 | Gauntness score, Severity ([2]; 60 mg/kg feed): 0.52 | Depression score, Incidence ([2]; 60 mg/kg feed): 3/25 | Diarrhea score, Incidence ([2]; 60 mg/kg feed): 19/25 | Gauntness score, Incidence ([2]; 60 mg/kg feed): 11/25 | Gauntness score, Mean of Day 0 to 14 ([2]; 60 mg/kg feed): 0.14 | Depression score, Mean of Day 0 to 14 ([2]; 60 mg/kg feed): 0.02 | Diarrhea score, Mean of Day 0 to 14 ([2]; 60 mg/kg feed): 1.37 | duration of shedding ([3]; 0, 30, 60 mg/kg feed): generally decreased as narasin level increased | effect of narasin level on the percentage of pigs shedding PEDV ([3]; 0, 30, 60 mg/kg feed, P>0.10): no effect | viral shedding compared to the control ([3]; 30 mg/kg feed): lower (P<0.10) viral shedding on Day 2 and Day 3 | Viral shedding ([3]; 30 mg/kg feed, Day 0): 0 cells/mL | Viral shedding ([3]; 30 mg/kg feed, Day 1): 1 cells/mL | Viral shedding ([3]; 30 mg/kg feed, Day 2): 1,005* cells/mL | Viral shedding ([3]; 30 mg/kg feed, Day 3): 152,889* cells/mL | Viral shedding ([3]; 30 mg/kg feed, Day 4): 7,543,717 cells/mL | Viral shedding ([3]; 30 mg/kg feed, Day 5): 108,303,640 cells/mL | Viral shedding ([3]; 30 mg/kg feed, Day 6): 879,972,048 cells/mL | Viral shedding ([3]; 30 mg/kg feed, Day 7): 1,422,120,182 cells/mL | Viral shedding ([3]; 30 mg/kg feed, Day 8): 268,967,479 cells/mL | Viral shedding ([3]; 30 mg/kg feed, Day 9): 63,817,042 cells/mL | Viral shedding ([3]; 30 mg/kg feed, Day 14): 2,256 cells/mL | viral shedding compared to the control ([3]; 60 mg/kg feed): lower (P<0.10) viral shedding on Day 2, 3, 4, 5, and 6 | Viral shedding ([3]; 60 mg/kg feed, Day 0): 0 cells/mL | Viral shedding ([3]; 60 mg/kg feed, Day 1): 0 cells/mL | Viral shedding ([3]; 60 mg/kg feed, Day 2): 1* cells/mL | Viral shedding ([3]; 60 mg/kg feed, Day 3): 4,085* cells/mL | Viral shedding ([3]; 60 mg/kg feed, Day 4): 18,980* cells/mL | Viral shedding ([3]; 60 mg/kg feed, Day 5): 593,842* cells/mL | Viral shedding ([3]; 60 mg/kg feed, Day 6): 5,551,647* cells/mL | Viral shedding ([3]; 60 mg/kg feed, Day 7): 171,586,154 cells/mL | Viral shedding ([3]; 60 mg/kg feed, Day 8): 58,813,444 cells/mL | Viral shedding ([3]; 60 mg/kg feed, Day 9): 16,189,481 cells/mL | Viral shedding ([3]; 60 mg/kg feed, Day 14): 9,262 cells/mL | immunohistochemistry score ([4]; 60 mg/kg feed, decreased from 3): 2 | intestinal histology score ([4]; narasin level increased 0, 30, 60 mg/kg: decreased from 2 to 0): 0 | replication of dengue flavivirus [5]: block replication | toxicity to nursery pigs [6]: toxic
